Results as given in patent publication US8822510B2, “Substituted 3-phenyl-1,2,4-Oxadiazole compounds” (Bristol-Myers Squibb Company, priority 2010, dated 2014).

System: circulating lymphocytes
Assay: Blood Lymphocyte Reduction Assay (BLR) in Rodents
Assay type: in vivo
Settings: Lewis rats, oral, vs vehicle group
Description: Lewis rats were dosed orally with test article (as a solution or suspension in the vehicle) or vehicle alone (polyethylene glycol 300, “PEG300”). Blood was drawn at 4 hr and 24 h by retro-orbital bleeding. Blood lymphocyte counts were determined on an ADVIA 120 Hematology Analyzer (Siemens Healthcare Diagnostics). The results were measured as a reduction in the percentage of circulating lymphocytes as compared to the vehicle treated group at the 4 hr and 24 hr measurement. The results represent the average results of all animals within each treatment group (n=3-4).
The following examples were tested in the Blood Lymphocyte Reduction assay (BLR) described hereinabove and the results are shown in Table C for rats.

Row | SMILES | % REDUCTION IN LYMPHOCYTES AT 4 HR. (10.0 mg/kg) | % REDUCTION IN LYMPHOCYTES AT 4 HR. (20.0 mg/kg)
1 | CC(C)(CCCc1nc(-c2ccc(CN3CC(C(=O)O)C3)cc2)no1)c1ccc(F)cc1 [Example 128, 1-(4-(5-(4-(4-fluorophenyl)-4-methylpentyl)-1,2,4-oxadiazol-3-yl)benzyl)-3-azetidinecarboxylic acid] | 80% | 
2 | O=C(O)C[C@@H]1CC(c2ccc(-c3noc(CCC4(c5ccccc5)CCCCC4)n3)cc2)=NO1 [Example 133, (S)-(3-(4-(5-(2-(1-phenylcyclohexyl)ethyl)-1,2,4-oxadiazol-3-yl)phenyl)-4,5-dihydro-5-isoxazolyl)acetic acid] |  | 84%
